Test results from patent publication US4808580A, “Naphtho[1,2-b][1,4]thiazepin-4(5H)-ones and use thereof in treatment of ischemia and blood pressure lowering” (Hoffmann-La Roche Inc., priority 1987, dated 1989).
Where a name gives a salt, the structure may show the parent alone.

Tested on: Guinea Pig Ileum
Assay: Guinea pig ileum assay - tonic contraction (K+-induced contraction of longitudinal muscle; calcium channel blocking activity)
Assay type: cell-based
Details: Cavia porcellus
Method: GUINEA PIG ILEUM ASSAY--TONIC CONTRACTION
Male guinea-pigs weighing from 300-400 grams were stunned and bled. The abdomen was opened and 10-15 cm of terminal ileum was carefully removed and cleaned and placed in Tyrode's Solution of the following composition: NaCl (8 g/l), KCl (0.2 g/l), MgCl2 (0.2 g/l.), CaCl2 (0.2 g/l), NaH2 PO4 (0.05 g/l), NaHCO3 (1.0 g/l) and Glucose (1 g/l). The solution was maintained at 37° C. and gassed with 95% O2 and 5% CO2. Portions of the ileum were placed over a glass rod, a shallow incision was made the length of the mesenteric attachment just severing the outer-longitudinal muscle layer. The longitudinal muscle was separated from the underlying circular muscle by gentle dissection (Rang, H. P. Annals of N.Y. Academy of Science Vol. 144, page 756, (1964)). The tissue was fixed at one end to a tissue holder, the other end was connected by a thread to a force transducer and suspended in a muscle bath containing Tyrode's Solution maintained at 37° C. and gassed with 95% O2 and 5% CO2. An initial tension of 500 mg was applied and the tissue allowed to equilibrate for 60 minutes prior to the start of the study. During this period the tissue was washed every 16 minutes. Each preparation, at 16 minute intervals, was challenged with KCl sufficient to yield a bath K^+ concentration of 80 mMK for 2 minutes, then washed with fresh solution. The 16 minute interval between K^+ challenges was maintained throughout the study. Upon stabilization of the responses to the K^+ challenge the test compound (potential calcium entry antagonist) was introduced into the bath 2 minutes prior to and during the 2 minute exposure to K^+ after which the bath was cleared and washed with fresh solution. Logarithmically increasing doses (up to 10^-4 M) of the potential antagonist were administered as the study progressed.
The measure of compound's ability to inhibit the tonic contraction of muscle is a measure of its activity as a calcium channel blocking agent.

SMILES | IC50 [nM]
COc1ccc([C@@H]2Sc3ccc4ccccc4c3N(CCN(C)C)C(=O)[C@@H]2O)cc1 (relative stereo) [A, cis-rac-2,3-dihydro-3-hydroxy-5-[2-(dimethylamino)ethyl]-2-(4-methoxyphenyl)naphtho[2,1-b][1,4]thiazepin-4(5H)-one hydrochloride] | 400
COc1ccc([C@@H]2Sc3ccc4ccccc4c3N(CCN(C)C)C(=O)[C@@H]2OC(C)=O)cc1 (relative stereo) [B, cis-rac-3-(acetyloxy)-2,3-dihydro-5-[2-(dimethylamino)ethyl]-2-(4-methoxyphenyl)naphtho[2,1-b][1,4]thiazepin-4(5H)-one (E)-2-butendioate] | 450
COc1ccc([C@@H]2Sc3ccc4ccccc4c3N(CCN(C)C)C(=O)[C@@H]2O)cc1 [C, cis-(+)-2,3-dihydro-3-hydroxy-5-[2-(dimethylamino)ethyl]-2-(4-methoxyphenyl)naphtho[2,1-b][1,4]thiazepin-4(5H)-one hydrochloride semihydrate] | 230
COc1ccc([C@@H]2Sc3ccc4ccccc4c3N(CCN(C)C)C(=O)[C@@H]2OC(C)=O)cc1 [D, cis-(+)-3-(acetyloxy)-2,3-dihydro-5-[2-(dimethylamino)ethyl]-2-(4-methoxyphenyl)naphtho[2,1-b][1,4]thiazepin-4(5H)-one (E)-2-butendioate] | 390
